Results as given in PMC12705485, “Aluminum-[^18F]fluoride radiolabeling of triarylphosphines for cell labeling via the perfluoroaryl azide Staudinger ligation” (EJNMMI Radiopharmacy and Chemistry, 2025).
Read-outs that look alike come from different tables or passages of the source.

Key:
[1] = Kinetic studies on the PFAA-Staudinger ligation with 1 by 1H NMR spectroscopy; settings: reaction with 1, DMSO-d6, 2.5 mM, 25 °C
Experimental: The kinetics of the Staudinger ligation between 1 and 2a–2c (Scheme 1) were monitored by ^1H NMR spectroscopy, following spectral changes over time.
The kinetic experiments were carried out following a published protocol (Sundhoro et al. [2017]). […] Kinetic models were evaluated by non-linear fitting corresponding to first- and second-order rate laws in Prism 10 (GraphPad, San Diego, CA, USA) as expected for the Staudinger ligation. Fitting was carried out using kinetic models based on reagent decomposition (A) or product formation (P) as shown in the equations below, depending on signal clarity and the magnitude of ^1H NMR spectral changes over time:where [A] = concentration of reactant A at time t, [A]₀ = initial concentration of reactant A (at t = 0), [P] = concentration of product P at time t, [P]₀ = maximum possible product concentration, k = rate constant and t = time elapsed.

[2] = Stability of 2c under simulated radiolabeling conditions (HPLC); format: physicochemical; settings: 60 nmol AlCl3, 1:1 0.17 M NaOAc (pH 4.5):EtOH, 30 min
Experimental: The analysis was carried out using a pentafluorophenyl (PFP) column (Kinetex 2.6 µm PFP 100 Å, LC Column 150 × 4.6 mm from Phenomenex, Torrance, CA, USA) and HPLC methods A and B (see SI). The Al^19F-complexes were isolated and analyzed using NMR and/or HRMS. The stability of 2c was also tested in the presence of 60 nmol AlCl3 in 1:1 (v/v) 0.17 M NaOAC (pH 4.5):EtOH, simulating the radiolabeling conditions.

[3] = cited from earlier work
[4] = tested on: Jurkat cells; assay: Flow cytometry of metabolic glycoengineering (phosphine-PEG3-biotin, streptavidin-FITC); format: cell-based, Human; settings: 50 µM, 72 h, then 1 µM phosphine-PEG3-biotin
Experimental: Jurkat cells (5 × 10^5 cells in 1.5-mL complete medium per well) were seeded in a non-treated flat-bottom polystyrene 6-well plate (Avantor, Radnor, PA, USA) and incubated in triplicates (n = 3) with 50 μM of 1, 50 μM of Ac4ManNAz (Lumiprobe, Westminster, MD, USA) or 0.5% (v/v) DMSO in complete medium for 72 h in a cell incubator set at 37 °C with 5% CO2 and 95% relative humidity. After incubation, the cells for each condition were combined and washed twice with 5 mL of 1 × Dulbecco's phosphate-buffered saline (DPBS). The cell number and viability were determined using EVE™ automatic cell counter (NanoEnTek, Seoul, Korea). 1 × 10^6 cells were resuspended in 500 µL of a freshly prepared 1 × DPBS (pH 7.4) or 1 µM of phosphine-PEG3-biotin (Thermo Fisher Scientific, Waltham, MA, USA) in 1 × DPBS (n = 3), then transferred to 1.5-mL microtubes, and incubated at ambient temperature for 60 min on a rotating platform. […] After the incubation, 400 µL of FACS (fluorescence-activated cell sorting) buffer (2% FBS in DPBS) was added followed by two washings with 500 µL of FACS buffer. […] Data were analyzed using FlowJo software (FlowJo LLC, Ashland, OR, United States).

[5] = tested on: Jurkat cells; assay: Cell viability during flow cytometry workflow (automatic cell counter / 7-AAD); format: cell-based, Human
Experimental: (§1) After incubation, the cells for each condition were combined and washed twice with 5 mL of 1 × Dulbecco's phosphate-buffered saline (DPBS). The cell number and viability were determined using EVE™ automatic cell counter (NanoEnTek, Seoul, Korea). 1 × 10^6 cells were resuspended in 500 µL of a freshly prepared 1 × DPBS (pH 7.4) or 1 µM of phosphine-PEG3-biotin (Thermo Fisher Scientific, Waltham, MA, USA) in 1 × DPBS (n = 3), then transferred to 1.5-mL microtubes, and incubated at ambient temperature for 60 min on a rotating platform. Then, cells are washed twice with 1 × DPBS, resuspended in 100 µL of a freshly prepared solution of 1:200 streptavidin-fluorescein isothiocyanate (FITC) (0.1 μg, Thermo Fisher Scientific, Waltham, MA, USA) in 1 × DPBS, and incubated for 15 min in the dark on ice with mixing once manually in between. After the incubation, 400 µL of FACS (fluorescence-activated cell sorting) buffer (2% FBS in DPBS) was added followed by two washings with 500 µL of FACS buffer. During the washing step, the samples were centrifuged at 4 °C, […] for 5 min, the supernatant was removed, and the cells were resuspended in fresh buffer, followed by centrifugation. Lastly, cells were resuspended in 500 µL of FACS buffer and transferred to FACS tubes equipped with a 35 µm cell strainer cap. Dead and apoptotic cells were stained by adding 5 µL of 7-aminoactinomycin D (7-AAD) staining solution and incubating for 10 min at ambient temperature in the dark, followed by flow cytometry analysis using LSR Fortessa (BD Biosciences, Franklin Lake, NJ, USA). Unstained samples, samples stained only with streptavidin-FITC, and only with 7-AAD were used as controls. Data were analyzed using FlowJo software (FlowJo LLC, Ashland, OR, United States).

[6] = as above; format: cell-based, Human; settings: human, Jurkat cells, 50 µM, 72 h
Experimental: as §1

[7] = CyQUANT LDH Cytotoxicity Assay; format: cell-based; settings: human, Jurkat T lymphoblasts (Clone E6-1), read-out: cell viability
Experimental: The in vitro cytotoxicity of 1 was assessed using the CyQUANT™ LDH Cytotoxicity Assay (Invitrogen, Waltham, MA, USA), which quantifies membrane damage via extracellular lactate dehydrogenase (LDH) release. Assay reagents (Lysis Buffer, Reaction Mixture, and Stop Solution) were prepared according to the manufacturer’s protocol. Human Jurkat T lymphoblasts (Clone E6-1, ATCC TIB-152™, Manassas, VA, USA) were suspended in complete medium and mixed (1:1) with 1 in complete medium to obtain final concentrations of 10, 20, 50, 125, and 250 μM containing 0.5% v/v DMSO vehicle. Positive control for cytotoxicity (maximum LDH; cells lysed with 10 × Lysis Buffer at 1:10 v/v, prepared before each time point), negative control for cytotoxicity (spontaneous LDH; 0.5% v/v DMSO in complete medium), and complete-medium and serum-free medium blanks (background) were included. Sample-containing and control cell suspensions were plates at a density of 14,000 cells per well in 280 μL on an opaque-walled, clear-bottom 96-well plate. Plates were incubated at 37 °C, 5% CO2 in a humidified incubator for 24, 48, and 72 h. All conditions were run in quadruplicate (n = 4). […] Absorbance was measured at 490 and 680 nm on a Synergy H1 multimode microplate reader (BioTek, Winooski, VT, USA). LDH signal was calculated as Abs490 – Abs680 (background-corrected).
% Cytotoxicity was determined as:

SMILES: O=C(O)CN(CC(=O)O)CC(CCNC(=O)Cc1ccc(CN(CC(=O)O)[C@@H]2CCCC[C@H]2N(CC(=O)O)CC(=O)O)cc1)OC(=O)c1ccccc1P(c1ccccc1)c1ccccc1 (stereo partly drawn) [2a]
- second-order rate constant of PFAA-Staudinger ligation [1]: 4.246 × 10^–4 M⁻1 s⁻1

SMILES: O=C(O)CN(CC(=O)O)[C@@H]1CCCC[C@H]1N(CC(=O)O)Cc1ccc(CC(=O)NCCNC(=O)c2ccccc2P(c2ccccc2)c2ccccc2)cc1 [2b]
- first-order rate constant of PFAA-Staudinger ligation [1]: 5.434 × 10^–3 s⁻1

SMILES: O=C(O)CN(CC(=O)O)C1CCCCC1N(CC(=O)O)Cc1ccc(CC(=O)NC2CCC(CNC(=O)c3ccccc3P(c3ccccc3)c3ccccc3)CC2)cc1 (stereo not drawn) [2c]
- second-order rate constant of PFAA-Staudinger ligation [1]: 4.071 × 10^–4 M⁻1 s⁻1
- stability under radiolabeling conditions without radioactivity (HPLC) [2]: negligible change

SMILES: SCP(c1ccccc1)c1ccccc1 [(diphenylphosphino)methanethiol]
- second-order rate constant, traceless Staudinger ligation ([3]; DMF:D2O (6:1) ref Soellner et al. [2006]): 7.7 × 10^–3 M^−1 s^−1

SMILES: CC(=O)OC[C@H]1OC(OC(C)=O)[C@@H](NC(=O)CN=[N+]=[N-])[C@@H](OC(C)=O)[C@@H]1OC(C)=O (stereo partly drawn) [Ac4ManNAz, Tetra-acetylated N-azidoacetylmannosamine, reference compound]
- fluorescent labeling with streptavidin-FITC [4]: observed
- cell viability after 72 h of incubation ([5]; 50 µM, 72 h): 96%
- cell viability at the time of analysis ([5]; 50 µM, 72 h, after ligation and staining): 79–82%

SMILES: [N-]=[N+]=NCc1ccccc1 [benzyl azide]
- second-order rate constant, non-traceless Staudinger ligation ([3]; ACN:H2O (19:1) ref Lin et al. [2005]): 2.5 × 10^–3 M^−1 s^−1

SMILES: CC(=O)OCC1OC(OC(C)=O)C(NC(=O)c2c(F)c(F)c(N=[N+]=[N-])c(F)c2F)C(OC(C)=O)C1OC(C)=O (stereo not drawn) [compound 1, tetra-acetylated PFAA-derivatized mannosamine]
- fluorescent labeling with streptavidin-FITC [4]: minimal/no signal
- cell viability ([5]; 100 µM, 72 h of incubation): reduced cell viability
- viability at 72 h, 50 µM ([6]; after ligation and staining, read-out: cell viability at the time of analysis): 77 to 80%
- viability at 72 h, 50 µM ([6]; read-out: cell viability after 72 h of incubation): 91%
- viability ([7]; concentrations up to 50 μM, 24, 48 and 72 h): > 80%
- viability at 125 µM ([7]; ≥ 125 μM, after 24 and 72 h of incubation): < 80%
